Experimental data taken from patent US20060074098A1, “Methods of treatment of amyloidosis using ethanolcyclicamine aspartyl protease inhibitors” (priority 2004, published 2006).
Where “and” joins values, the source holds several entries; their conditions need not be identical. Identical values can stand only once.

What was measured:
[1] = system: catE / beta-secretase (BACE); test: CatE/BACE selectivity (ratio of IC50 values); format: biochemical; details: each value is an average of four experimental runs, multiple values = more than one experiment
Method: (§1) Investigation of potential beta-secretase inhibitors produced compounds with increased selectivity for beta-secretase over other aspartyl proteases such as cathepsin D (catD), cathepsin E (catE), Human Immunodeficiency Viral (HIV) protease, and renin. Selectivity was calculated as a ratio of inhibition (IC50) values in which the inhibition of beta-secretase was compared to the inhibition of other aspartyl proteases.
The compounds of formula (I) can be selective for beta-secretase versus catE. […] Selectivity is reported as the ratio of IC50(catE):IC50(BACE).
(§2) In the following examples, each value is an average of four experimental runs and multiple values for one compound indicate that more than one experiment was conducted.

[2] = system: catD / beta-secretase (BACE); test: CatD/BACE selectivity (ratio of IC50 values); format: biochemical; details: each value is an average of four experimental runs; multiple values = more than one experiment
Method: as §1
The compounds of formula (I) can be selective for beta-secretase versus catD.
as §2

Row | Selectivity IC50 catE/IC50 BACE ([1]; listed as 8.3) | Selectivity IC50 catD/IC50 BACE [2] | Selectivity IC50 catE/IC50 BACE [1] | SMILES
1 | > 2.9 and > 2.4 | > 2.9 and > 2.4 |  | CCCC1CCNC(C(O)C(Cc2cc(F)cc(F)c2)NC(C)=O)C1 (stereo not shown) [Example 8.1, N-[1-(3,5-Difluoro-benzyl)-2-hydroxy-2-(4-propylpiperidin-2-yl)-ethyl]-acetamide]
2 |  | >3.3 | >3.3 | CC(=O)NC(Cc1cc(F)cc(F)c1)C(O)C1CC2CCCCC2CN1 (stereo not shown) [Example 8.2, N-(1-(decahydroisoquinolin-3-yl)-3-(3,5-difluorophenyl)-1-hydroxypropan-2-yl)acetamide]
